Results on four compounds are retold here after patent US20250326771A1, “PIPERAZINE DERIVATIVES USEFUL IN HIV THERAPY” (VIIV HEALTHCARE COMPANY, priority 2022, published 2025).

Experiment [1] has as its system Jurkat HIV-luciferase clones. Briefly: Jurkat latency reversal assay. In kind it is cell-based. As to conditions: Homo sapiens, 48 h; Jurkat latency reversal assay potency; read-out: Jurkat pEC50 (converted). On the procedure: Jurkat HIV-luciferase clones were maintained in RPMI medium 1640 (Gibco by Life Technologies) containing 10% (vol/vol) fetal bovine serum (SAFC/Sigma-Aldrich) and 25 units/mL penicillin, 25 units/mL streptomycin (Gibco by Life Technologies), and were split 1:4 every 3 to 4 days to maintain a cell density of ˜0.3 to 1 million cells/mL. The Jurkat clones were maintained with the addition of 500 nM EFV in the medium. Three Jurkat cell clones (C16, 115, and N6), each harboring one or two integrated HIV proviruses expressing the luciferase reporter gene, were added at equal amounts for a total of 5,000 cells per well to 384-well plates containing compound titrations. Dose-response testing was performed on compounds dissolved in dimethyl sulfoxide (DMSO; Fisher Scientific, Merelbeke, Belgium) dispensed in duplicate serial 3-fold, 14-point titrations using a D300e Digital Droplet Dispenser (Hewlett-Packard) to give final assay concentrations of 10 μM to […] in 50 μL of medium at 0.5% DMSO (vol/vol) final concentration. Cells and compound were incubated at 37° C. for 48 hours, unless otherwise indicated, followed by the addition of 20 μL of Steady-Glo® Luciferase (Promega). Luminescence resulting from the induction of the virally expressed luciferase was measured using an EnVision 2102 Multilabel Plate Reader (Perkin Elmer). Dose-response relationships were analyzed with GraphPad PRISM 6 using a four-parameter logistic regression model to calculate the concentration of compound that gives half-maximal response (EC50) and the maximal percent activation compared to the vehicle control.

The target of another experiment is cIAP2-BIR3 (Homo sapiens (Human), UniProt Q13489). As to the kind of experiment: BIR binding assay (FRET competition), cIAP2 BIR3. On the procedure: (§1) The BIR domain binding assays are FRET based competition assays that utilize His-tagged versions of each of the BIR2 and BIR3 domains from cIAP1, cIAP2, and XIAP (each domain assayed separately) each at a custom optimal concentration and a probe, 200 nM SMAC/DIABLO peptide […] labelled with AlexaFluor647 (part #crb 1110326h, Discovery Peptides). The assay is conducted in 50 mM HEPES, […], 1 mM CHAPS, 5% Glycerol, 1 mM DTT, in dI water with a final pH of 7.4 and final volume of 20 uL. Final protein domain concentrations are: 50 nM cIAP1-BIR3 (Part #APT-11-370 Reaction Biology), 100 nM XIAP-BIR3 (Part #APT-11-351 Reaction Biology), 200 nM XIAP-BIR2 (Part #APT-11-470 Reaction Biology), 325 nM cIAP2-BIR2 (Part #APT-11-489 Reaction Biology), 50 nM cIAP2-BIR3 (Part #APT-11-372 Reaction Biology), 325 nM cIAP1-BIR2 (Part #APT-11-487 Reaction Biology). Compounds were plated using a HP Tecan D300 printer in a final total volume of 202 nl and DMSO concentration normalized across the 15-point, 3-fold dilution series. Peptide and probe were prepared at 2× relative to the concentrations above in binding buffer, 10 uL added to the prepared compound plates, and incubated for 60 minutes. LANCE Eu-W1024 (part #AD0401 Perkin Elmer #, vendor) was prepared at 2× concentration in binding buffer for final concentration of 2 nM, 10 uL added to each well, and plates incubated for 30 minutes. Plates were read on an ENVISION multifunction plate reader with […] laser excitation to obtain the 615 nm/665 nm emission ratio as indicative of probe:protein proximity. Data was analyzed using GraphPad PRISM and curves fit using log(inhibitor) vs. response—Variable slope (four […] method to obtain IC50 and pIC50 values.

In a further experiment the target is cIAP1-BIR3 (Homo sapiens (Human), UniProt Q13490). Briefly: BIR binding assay (FRET competition), cIAP1 BIR3. On the procedure: as §1
Another experiment has as its target XIAP-BIR3 (Homo sapiens (Human), UniProt P98170). Briefly: BIR binding assay (FRET competition), XIAP BIR3. The procedure:
as §1

SMILES strings stand for the structures.

cIAP2-BIR3, sequence (Q13489 238-349): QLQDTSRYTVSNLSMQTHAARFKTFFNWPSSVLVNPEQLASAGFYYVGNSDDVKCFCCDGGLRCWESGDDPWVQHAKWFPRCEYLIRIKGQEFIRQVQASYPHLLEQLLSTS
cIAP1-BIR3, sequence (Q13490 253-363): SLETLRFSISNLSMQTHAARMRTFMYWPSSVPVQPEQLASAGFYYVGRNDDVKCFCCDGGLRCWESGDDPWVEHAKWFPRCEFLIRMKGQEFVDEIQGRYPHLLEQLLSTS
XIAP-BIR3, sequence (P98170 241-356): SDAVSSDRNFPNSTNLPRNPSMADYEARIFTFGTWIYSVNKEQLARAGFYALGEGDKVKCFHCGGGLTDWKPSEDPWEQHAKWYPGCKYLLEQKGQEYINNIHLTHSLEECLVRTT

The IC50 is the concentration that inhibits the measured activity by half. A lower IC50 goes with greater potency. In the case of `C[C@@H]1CN(CC(=O)N2CC(C)(C)c3[nH]c(=O)c(Cc4ccc(F)cc4)cc32)[C@@H](CN2CCO[C@H](COc3ccc(Cc4ccc(OC[C@@H]5CN(C[C@H]6CN[C@H](C)CN6CC(=O)N6CC(C)(C)c7[nH]c(=O)c(Cc8ccc(F)cc8)cc76)CCO5)cc4)cc3)C2)CN1` [Example 53, 1,1′-(2,2′-((3R,3′R,6R,6′R)-(((2S,2'S)-(((methylenebis(4,1-phenylene))bis(oxy))bis(methylene))bis(morpholine-2,4-diyl))bis(methylene))bis(3-methylpiperazine-6,1-diyl))bis(acetyl))bis(6-(4-fluorobenzyl)-3,3-dimethyl-1,2,3,4-tetrahydro-5H-pyrrolo[3,2-b]pyridin-5-one)], in experiment [1], the EC50 is 12.6 to 63.1 nM. Also, the concentration for half-maximal inhibition (IC50) at cIAP2-BIR3, at cIAP1-BIR3 and on XIAP-BIR3 was 31.6 to 501 nM in each case.
With `COc1cc(Cl)ccc1Cc1cc2c([nH]c1=O)C(C)(C)CN2C(=O)CN1C[C@@H](C)NC[C@@H]1CN1CCO[C@H](C(=O)NCc2ccc(CNC(=O)[C@@H]3CN(C[C@H]4CN[C@H](C)CN4CC(=O)N4CC(C)(C)c5[nH]c(=O)c(Cc6ccc(Cl)cc6OC)cc54)CCO3)cc2)C1` [Compound 169, (2S,2′S)-N,N′-(1,4-phenylenebis(methylene)) bis(4-(((2R,5R)-1-(2-(6-(4-chloro-2-methoxybenzyl)-3,3-dimethyl-5-oxo-2,3,4,5-tetrahydro-1H-pyrrolo[3,2-b]pyridin-1-yl)-2-oxoethyl)-5-methylpiperazin-2-yl)methyl)morpholine-2-carboxamide)], the EC50 in experiment [1] is 12.6 to 63.1 nM. In addition, the IC50 was in the range of 1.38 to 7.94 nM on cIAP2-BIR3, 7.94 to 15.8 nM at cIAP1-BIR3 and 31.6 to 501 nM at XIAP-BIR3.
In the same order, the values of `C[C@@H]1CN(CC(=O)N2CC(C)(C)c3[nH]c(=O)c(Cc4ccc(F)cc4)cc32)[C@@H](CN2CCO[C@H](COc3ccc(CCc4ccc(OC[C@@H]5CN(C[C@H]6CN[C@H](C)CN6CC(=O)N6CC(C)(C)c7[nH]c(=O)c(Cc8ccc(F)cc8)cc76)CCO5)cc4)cc3)C2)CN1` [Example 58, 1,1′-(2,2′-((3R,3′R,6R,6′R)-(((2S,2'S)-(((ethane-1,2-diylbis(4,1-phenylene))bis(oxy))bis(methylene))bis(morpholine-2,4-diyl))bis(methylene))bis(3-methylpiperazine-6,1-diyl))bis(acetyl))bis(6-(4-fluorobenzyl)-3,3-dimethyl-1,2,3,4-tetrahydro-5H-pyrrolo[3,2-b]pyridin-5-one)] are 12.6 to 63.1 nM, 7.94 to 15.8 nM, 15.8 to 31.6 nM and 15.8 to 31.6 nM.
Turning to `C[C@@H]1CN(CC(=O)N2CC(C)(C)c3[nH]c(=O)c(Cc4ccc(F)cc4)cc32)[C@@H](CN2CCC(CCCC3CCN(C[C@H]4CN[C@H](C)CN4CC(=O)N4CC(C)(C)c5[nH]c(=O)c(Cc6ccc(F)cc6)cc54)CC3)CC2)CN1` [Example 94, 1,1′-(2,2′-((3R,3′R,6R,6′R)-((propane-1,3-diylbis(piperidine-4,1-diyl))bis(methylene))bis(3-methylpiperazine-6,1-diyl))bis(acetyl))bis(6-(4-fluorobenzyl)-3,3-dimethyl-1,2,3,4-tetrahydro-5H-pyrrolo[3,2-b]pyridin-5-one)], the EC50 in experiment [1] was 0.49 to 12.6 nM. The half-inhibitory concentration (IC50) fell in the range of 7.94 to 15.8 nM on cIAP2-BIR3, 7.94 to 15.8 nM on cIAP1-BIR3 and 15.8 to 31.6 nM on XIAP-BIR3.
